# Earlier results, collected in US8143269B2, “Inhibitors of store operated calcium release” (Calcimedica, Inc., priority 2008, dated 2012).
# Legend:
# [1] = target: STIM1 and Orai1 in human embryonic kidney 293 cells (HEK293 cells) (Homo sapiens, UniProt Q96D31); conditions: HEK293 cells coexpressing STIM1 and Orai1
# Sequence of STIM1 and Orai1 in human embryonic kidney 293 cells (HEK293 cells) (Q96D31 whole entry): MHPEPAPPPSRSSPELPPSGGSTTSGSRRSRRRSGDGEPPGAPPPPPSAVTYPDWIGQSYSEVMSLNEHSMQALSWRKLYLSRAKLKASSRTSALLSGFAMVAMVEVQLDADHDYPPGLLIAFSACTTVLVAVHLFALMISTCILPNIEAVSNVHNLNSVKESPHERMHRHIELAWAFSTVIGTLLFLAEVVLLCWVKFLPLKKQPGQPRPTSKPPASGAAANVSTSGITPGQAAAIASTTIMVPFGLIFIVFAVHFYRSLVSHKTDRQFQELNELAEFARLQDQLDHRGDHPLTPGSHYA
Structure (SMILES),block of store-dependent Ca2+ entry [1],inhibition of SOCE (colon cancer cells),inhibition of proliferation (colon cancer cells),inhibition of SOCE (Jurkat cells),inhibition of proliferation (Jurkat cells)
NCCOB(c1ccccc1)c1ccccc1 [2-aminoethoxydiphenylborate],completely blocked,–,–,–,–
Cc1nnsc1C(=O)Nc1ccc(-n2nc(C(F)(F)F)cc2C(F)(F)F)cc1 [BTP-2],–,inhibits,inhibits,inhibits,inhibits
